Laboratory results: the NIST ThermoML archive (doi:10.1016/j.fluid.2018.01.030)
± gives the expanded uncertainty stated by the source.

Experiments:
[1] = 101.33 kPa, Liquid; for viscosity: Capillary tube (Ostwald / Ubbelohde) method; for mass density: Pycnometric method
[2] = wn = mass fraction of the nth substance listed; details: for viscosity / mass density: 101 kPa, Liquid; for viscosity: Capillary tube (Ostwald / Ubbelohde) method; for mass density: Pycnometric method; for surface tension liquid-gas: Pendant drop shape

NCCN1CCNCC1 [N-(β-aminoethyl)piperazine)]
[1]
Details | mass density [kg/m3] | viscosity [mPa·s]
303.2 K | 981.129 ± 1 | 14.18 ± 0.17
313.2 K | 977.356 ± 1 | 8.669 ± 0.14
323.2 K | 973.989 ± 1 | 5.626 ± 0.11
333.2 K | 969.461 ± 1.1 | 4.481 ± 0.097
343.2 K | 965.122 ± 1.1 | 3.697 ± 0.095

CN(CCO)CCO [N-methyldiethanolamine] + O
[2]
Details | mass density, 303.2 K [kg/m3] | mass density, 313.2 K [kg/m3] | mass density, 323.2 K [kg/m3] | mass density, 333.2 K [kg/m3] | viscosity, 303.2 K [mPa·s] | viscosity, 313.2 K [mPa·s] | viscosity, 323.2 K [mPa·s] | viscosity, 333.2 K [mPa·s]
w1 = 0.1 | 1003.8 ± 1 | 999.5 ± 1 | 995.2 ± 1 | 990.5 ± 1 | 1.164 ± 0.061 | 0.912 ± 0.061 | 0.752 ± 0.061 | 0.635 ± 0.06
w1 = 0.2 | 1012.4 ± 1 | 1008.4 ± 1 | 1003.5 ± 1 | 998.6 ± 1 | 1.635 ± 0.063 | 1.314 ± 0.062 | 1.06 ± 0.06 | 0.867 ± 0.061
w1 = 0.3 | 1024.5 ± 1 | 1019.5 ± 1 | 1015.2 ± 1 | 1008.2 ± 1 | 2.634 ± 0.066 | 1.946 ± 0.064 | 1.517 ± 0.062 | 1.219 ± 0.061

OCCNCCO [diethanolamine] + O
surface tension liquid-gas [mN/m], [2]
Details | 313.2 K | 323.2 K | 333.2 K
w1 = 0.1 | 60.42 ± 0.83 | 59.18 ± 0.83 | 58.85 ± 0.82
w1 = 0.2 | 63.07 ± 0.84 | 62.23 ± 0.84 | 60.56 ± 0.84
w1 = 0.3 | 61.57 ± 0.84 | 60.13 ± 0.84 | 58.43 ± 0.83
